Test results taken from patent US20240238218A1, “[…] A […] ACTIVE COMPOUND AND METHOD OF PREPARATION THEREOF” (GW Research Limited, priority 2021, published 2024).

Assays:
[1] = test system: mouse model of generalised seizure (tonic hind limb extensor convulsions); test: Maximal electroshock seizure threshold (MEST) test in the mouse; details: 2.5 mg/kg i.p., 30 min post dose
Method: The efficacy of the novel resorcinol according to the compound of Formula I was tested in a mouse model of generalised seizure, the maximal electroshock seizure threshold (MEST) test.
(§1) In the MEST test the ability of a drug to alter the seizure threshold current required to induce hind limb tonic extensor convulsions is measured according to an “up and down” method of shock titration (Kimball et al., 1957). An increase in seizure threshold is indicative of anti-convulsant effect.
(§2) The ability of a test compound to alter the stimulus intensity, expressed as current (mA), required to induce the presence of tonic hind limb extensor convulsions, is assessed in the MEST.
(§3) All animals were weighed at the beginning of the study and randomly assigned to treatment groups based on a mean distribution of body weight across groups.
The first animal within a treatment group was given a shock at the expected or estimated CC50 current. For subsequent animals, the current was lowered or raised depending on the convulsions outcome from the preceding animal, in intervals of 5 mA.
(§4) Data generated from each treatment group were used to calculate the CC50±SEM values for the treatment group.
Vehicle: (5% ethanol, 5% Kolliphor® EL, 90% Saline) was prepared as follows: 2 mL of ethanol, 2 mL of Kolliphor® EL were warmed to 60° C., in 36 mL of saline (1:1:18).
The test compound, described herein as Compound I, is as shown as Formula I. Test compound was administered at 1, 5, 20, 50, 100 and 200 mg/kg (i.p.) in a 1:2:17 ethanol:solutol:0.9% saline formulation.
(§5) The data for each treatment group were recorded as the number of +'s and 0's at each current level employed and this information is then used to calculate the CC50 value (current required for 50% of the animals to show seizure behaviour)±standard error.
(§6) Test compound effects were also calculated as percentage change in CC50 from the vehicle control group.
(§7) Significant difference between drug-treated animals and controls were assessed according to Litchfield and Wilcoxon (1949).

[2] = test system: mouse model of generalised seizure (tonic hind limb extensor convulsions); test: mini-MEST (maximal electroshock seizure threshold, minimal sample sizes) test in the mouse; details: 2.5 mg/kg i.p., 30 min post dose
Method: The maximal electroshock seizure threshold (MEST) test is widely utilized preclinically to evaluate pro- or anti-convulsant properties of test compounds (Loscher et al., 1991).
as §1, §2, §3
The first animal within a treatment group was given a shock at the expected or estimated CC50 current. For subsequent animals, the current was lowered or raised depending on the convulsions outcome from the preceding animal in log scale intervals.
as §4
Vehicle: (5% ethanol, 10% solutol in 85% Saline) was prepared as follows: 1 mL of ethanol, 2 mL of solutol were warmed to 60° C., in 17 mL of saline (1:2:17).
The test compound, described herein as Compound I, is as shown as Formula I. Test compound was administered at 50 mg/kg (i.p.) in a 1:2:17 ethanol:solutol:0.9% saline formulation.
as §5, §6, §7

[3] = test system: RjOrl: Swiss mice; test: Mouse 6 Hz (44 mA) psychomotor seizure test; assay type: in vivo; details: 300 mg/kg i.p.
Text: The 6 Hz Psychomotor Test, which detects anticonvulsant activity, follows that described by Brown et al. (J. Pharmacol. Exp. Ther. 107, 273-283, 1953).
Male RjOrl: Swiss mice, 5 weeks old, weighing 28-38 g at the beginning of the experiment. Animals were acclimatized to the test facility for at least 5 days after delivery and randomly housed in groups of 3-4 in macrolon cages on wood litter with free access to food and water.
Before transcorneal stimulation, a drop of tetracaine solution (2%) was applied on each eye of the mouse for local anesthesia. Between 1-10 minutes later, at the pre-treatment time specified for the test compound, the mice were administered a rectangular current (44 mA, rectangular pulse: 0.2 ms pulse width, 3 s duration, 6 Hz) via corneal electrodes connected to a constant current shock generator.
The number of seizures as reflected by forelimb clonus were recorded immediately after current administration. Forelimb clonus was scored as absent (0=no forelimb clonus), mild (1=clonus with one forelimb) and strong (2=clonus with both forelimbs).
[…] The experimenters were blinded to the treatment. The cages were randomly assigned to a treatment code, each designating one treatment group.
Compound I was administered intraperitoneally at 20 and 50 mg/kg, 30 minutes before the test, and at 100 and 200 mg/kg, 60 minutes before the test and were compared with the vehicle control (5% ethanol, 10% […], 85% physiological saline).
Valproate (300 mg/kg i.p.), administered 30 minutes before the test, was used as reference substance and was compared with the vehicle control (5% ethanol, 10% Kolliphor HS15, 85% physiological saline).
(§8) Test compound: Compound I dissolved in 5% ethanol, 10% Kolliphor HS15, 85% physiological saline.
(§9) Vehicle control: 5% ethanol, 10% Kolliphor HS15, 85% physiological saline.
Reference: Valproate (300 mg/kg), dissolved in 5% ethanol, 10% Kolliphor HS15, 85% physiological saline.
Data were assumed to be non-normally distributed based on validation data, therefore non-parametric tests were utilized. Quantitative data (scores) with the test substance were analyzed by comparing treated groups with the corresponding vehicle control using Kruskal-Wallis test with Dunn's multiple comparisons test when the Kruskal-Wallis Test was significant. Quantitative data with the reference substance was analysed using Mann-Whitney U test.

[4] = test system: DBA/2 mice; test: DBA/2 mouse audiogenic seizure test; assay type: in vivo; details: 180 mg/kg i.p.
Text: The DBA/2 audiogenic seizure test, which detects anticonvulsant activity, follows that described by Dürmüller et al. (NeuroReport, vol. 4, no. 6, pages 683-686, 1993).
60 male DBA/2 mice (3-4 weeks old) were included in the experiment (weight range 8-11 g at the beginning of the experiment). Animals were acclimatized to the test facility for 1 day after delivery and randomly housed in groups of 5 in macrolon cages on wood litter with free access to food and water.
Mice were individually transferred (at 3-5 minutes intervals) from the preparation room into an adjacent experimental room and body temperature was measured using a rectal thermometer. Immediately after, they were placed in a Plexiglas jar (Diameter=40 cm; Height=35 cm) mounted with an electric bell. Upon activating the bell, the occurrences and latencies to wild running fits, clonic and tonic seizures were measured. Deaths were also recorded. The bell was activated until a tonic seizure occured or for a maximum of 60 seconds.
The experiment included 6 groups (10 mice were studied per group). Experimenters were blinded to the treatment groups.
The test substance was evaluated at 4 doses, administered i.p. (10 mL/kg) 30 or 60 minutes before the test, and compared with a vehicle control group. Doses and pre-treatment times were based on previous pharmacokinetic data.
as §8, §9
Reference: Valproate (180 mg/kg), dissolved in 5% ethanol, 10% Kolliphor HS15, 85% physiological saline.
Quantitative data (latencies) with the test substance were analyzed by comparing treated groups with vehicle control using Kruskal-Wallis test followed by Dunn's multiple comparisons test. Quantitative data with the reference substance were analyzed using Mann-Whitney U test.
Quantal data (frequencies) were analyzed by comparing treated groups with vehicle control using Fisher's Exact Probability tests.

[5] = 30 min before the test, bell maximum 60 seconds
[6] = 30 min before the test, listed as valproate

## CN1C(=O)CN=C(c2ccccc2)c2cc(Cl)ccc21 [Diazepam, diazepam, reference compound]
[1]
  % change from vehicle (CC50): 449%
[2]
  % change from vehicle (CC50): 279%

## CCCC(CCC)C(=O)O [Valproate, reference compound]
[3]
  Slight sedation (mice affected): One mouse out of the 15 tested
[3]; 30 minutes before the test
  Forelimb clonus, Compared with Vehicle B (i.p.) %: −88%
[3]; 30 minutes before the test, listed as valproate
  Forelimb clonus, Compared with Vehicle B (i.p.) %: −88%
[3]; 30 minutes before the test, score 0-2
  Forelimb clonus (mean ± s.e.m.): 0.1 ± 0.1
[4]
  Adverse signs: No adverse signs were noted
[4]; 30 min before the test
  Clonic convulsion, Presence, %: 0%
  Clonic convulsion, Presence, Compared with Vehicle (i.p.) %: −100%
  Clonic convulsion, Presence, Total: 0/10
  Death, Presence, %: 0%
  Death, Presence, Compared with Vehicle (i.p.) %: −100%
  Death, Presence, Total: 0/10
  Tonic extension, Presence, %: 0%
  Tonic extension, Presence, Compared with Vehicle (i.p.) %: −100%
  Tonic extension, Presence, Total: 0/10
  Wild running, Presence, %: 0%
  Wild running, Presence, Compared with Vehicle (i.p.) %: −100%
  Wild running, Presence, Total: 0/10
[4]; [5]
  Clonic convulsion, Latency (s) Median: 60.0 s
  Tonic extension, Latency (s) Median: 60.0 s
  Wild running, Latency (s) Median: 60.0 s
[4]; [6]
  Clonic convulsion, Presence, Compared with Vehicle (i.p.) %: −100%
  Tonic extension, Presence, Compared with Vehicle (i.p.) %: −100%
  Wild running, Presence, Compared with Vehicle (i.p.) %: −100%
